For the experiment, the system named is Oxa-induced colitis. Description: Oxazolone (Oxa)-induced colitis mouse model. It counts as in vivo. The settings on record: for Colon length / Colon weight (wet weight per length): 6 days, mean ± SD. An excerpt:
In this Example, mouse models to which oxazolone (4-ethoxymethylene-2-phenyl-2-oxazolin-5-on, hereinafter, Oxa) is used will be described as colitis models. When Oxa was first applied to skin, subsequently administered enterally after a certain period of time, an experimental ulcerative colitis model similar to human ulcerative colitis in terms of not only symptoms such as suppression of body weight increase, blood in stools, and anemia and formation of colon erosion but also immune cells was built (Non-Patent Literature 4). A suppression effect of Compound X on colitis in such a model as the test model showing pathological conditions more similar to human ulcerative colitis was examined. For the examination items, the length and weight of the colon were examined as changes in colon properties are widely known to occur also in this model.
For treatment, Balb/c, male mice were purchased from CHARLES RIVER LABORATORIES JAPAN, INC. in accordance with previous literature (Non-Patent Literature 5) and 8-week old mice with no abnormal general conditions during quarantine and acclimation period were used for the experiment. After acclimation, the animals were divided in such a way as to be 1 mouse per cage. Oxa used in the experiment was purchased from Sigma.
Fur at back of the neck was shaved in an area of 1.5×1.5 cm under anesthesia, and 150 μL (a 100% ethanol solution) of 3% (wt/vol) Oxa was added using a pipette and applied between the shoulders to sensitize (Day 1). The mice were kept under such a typical breeding environment, fasted for 16 hours from Day 7 (water supply was continued), and subsequently on Day 8 100 μL of a solution of 1% (wt/vol) Oxa in 50% ethanol was transanally administered into the rectum (3.5 cm from the anus) using a catheter under anesthesia. Hereinafter, the above treatment is described as Oxa treatment. After treatment, typical feeding breeding was carried out.
Starting on the day following intrarectal administration of Oxa, test substances were orally administered (once daily, for 6 days). 5-Aminosalicylic acid (hereinafter 5-ASA, Tokyo Chemical Industry, Co., Ltd.) and prednisolone (hereinafter, PSL, Sigma), which are anti-inflammatory agents used for treating ulcerative colitis, were used as positive controls for the test. After group division, each of the test substances of Table 6 was suspended in a solution of 0.5% sodium carboxymethyl cellulose (hereinafter, CMC, Nacalai Tesque Inc.) in such a way as to be each treatment of Table 6 and orally administered once daily. […] These control groups, Groups 1 and 2, were orally administered, as the test substance, with the 0.5% CMC solution which was used as the medium.
The test started with 6 mice in Group No. 1 and 9 mice each in Group Nos. 2 to 6. After the treatment started, death of animals in Group Nos. 2 to 6 due to the cause considered enteritis from Oxa treatment was observed and thus 6 mice in Group Nos. 1 and 3, and 5 mice in Group Nos. 2 and 6, and 7 mice in Group Nos. 4 and 5 were finally used for analysis.
It is generally acknowledged as a known fact that Oxa treatment causes colon tissue changes such as the length of colon is shortened while the weight increases. For evaluating the therapeutic effect of Compound X, the length and weight of the colon were measured. The mice were euthanized under anesthesia on day 7 of Oxa treatment and dissected to remove the colon. The removed colon was quickly measured for a length in a relaxed state. Subsequently, feces in the intestinal tract were removed and sufficiently washed with phosphate buffered saline (Wako Pure Chemical Industries, Ltd.) and measured for a wet weight.

[1] abbreviates: Group Nos. 3 to 6 of Table 7, in words.
Setting [2] is: Oxa treatment + high dose 10 mg/kg/day oral, day 7, 10 mg/kg/day.

This note sets out measurements from patent US20210052537A1, “COLITIS AMELIORATING AGENT” (ASTA PHARMACEUTICALS, CO., LTD., priority 2018, published 2021).

Values joined by “and” are separate entries in the source; they are usually repeats but may differ in a detail not shown here. Identical values can stand only once.

`CC1=C(/C=C/C(C)=C/C=C/C(C)=C/C=C/C=C(C)/C=C/C=C(C)/C=C/C2=C(C)C(=O)[C@@H](OC(=O)CNC(=O)NCCCC(=O)O)CC2(C)C)C(C)(C)C[C@H](OC(=O)CNC(=O)NCCCC(=O)O)C1=O.NCCCC[C@H](N)C(=O)O.NCCCC[C@H](N)C(=O)O` [Compound X, 4-(3-{4-[18-(4(S)-[3-(3-Carboxypropyl)ureidoacetoxy]-2,6,6-trimethyl-3-oxocyclohexa-1-enyl)-3,7,12,16-tetramethyloctadeca-1(E),3(E),5(E),7(E),9(E),11(E),13(E),15(E),17(E)-nonaenyl]-3,5,5-trimethyl-2-oxocyclohex-3-enyl-1(S)-oxycarbonylmethyl}ureido)butyric acid dilysine salt]: the “Colon length compared with Vehicle group” value under setting [1] is “longer length of the colon than Vehicle group”. The “Colon wet weight compared with Vehicle group” value under setting [1] is listed as “suppressed weight increases compared with Vehicle group”. In addition, the Colon length reads like this: under setting [2], 8.74 cm and 8.74 ± 0.48 cm; (Oxa treatment + low dose 3 mg/kg/day oral, Balb/c mice, day 7 of Oxa treatment, 3 mg/kg/day) 8.72 cm and 8.72 ± 0.50 cm. For the same compound, the “Colon weight (wet weight per length)” value under setting [2] is 2.80 mg/mm and 2.80 ± 0.43 mg/mm; the “Colon weight (wet weight per length)” value (Oxa treatment + low dose 3 mg/kg/day oral, day 7, 3 mg/kg/day) is 3.44 mg/mm and 3.44 ± 0.45 mg/mm.
